viability, T/C and IC50 data for 7 molecules are collected here from PubChem BioAssay AID2060494 (Molecular Pharmacology Branch, DTP, NCI, 2025).

Where “and” joins values, the source holds several entries; their conditions need not be identical. Identical values can stand only once.

The term viability, T/C denotes the result in the treated group divided by that in the control group, in per cent. The IC50 is the concentration that gives 50% inhibition.

The assay has as its system 435261-313-R-J1-PDC complex spheroid viability. The assay is described as follows: Anticancer human tumor 435261-313-R-J1-PDC patient-derived colon adenocarcinoma cell line growth inhibition [GQUAD]. Particulars: for viability, T/C: stronger effect = lower value. The source says:
DNA G-quadruplex Stabilizer Agents in Combinations in Complex Spheroids
A high-throughput screen of multi-cell type tumor spheroids was designed to identify active combinations of DNA G-quadruplex stabilizer agents and targeted small molecules. Complex spheroids include a stromal component modeled by human endothelial cells (HUVEC) and fibroblasts modeled by human mesenchymal stem cells (MSCs). The concentration ranges selected for each drug and investigational agent were based upon clinically achievable concentrations if the clinical Cmax of the agent was known.
Compounds. The drugs and investigational agents: pidnarulex (CX-5461; NSC782164), APTO-253 (NSC789042), BRACO-19 (NSC847499), peposertib (NSC802822), ceralasertib (NSC780249), elimusertib (NSC800525), camonsertib (NSC841442), AZD-1390 (NSC803789), olaparib (NSC753686), talazoparib (NSC767125), ART-558 (NSC835418), sotorasib (NSC818433), MRTX-1133 (NSC836407), SN-38 (NSC673596), topotecan (NSC609699), etoposide (NSC141540), doxorubicin (NSC123127), gemcitabine (NSC613327), 5-fluorouracil (NSC19893), paclitaxel (NSC125973), vemurafenib (NSC761431), panobinostat (NSC761190), R-306465 (JNJ-16241199; NSC773264), adavosertib (NSC754352), TP-3654 (NSC805149), carboplatin (NSC241240), KSQ-4279 (NSC840948), and staurosporine (NSC755774) were obtained from the National Cancer Institute (NCI) Developmental Therapeutics Program Chemical Repository (34). The FDA-approved anticancer drug set is available from the NCI Developmental Therapeutics Program. […] The stock solutions were prepared in dimethyl sulfoxide (DMSO, Sigma-Aldrich, St. Louis, MO, cat. D2650) at 800-fold the tested concentration and stored at -70 degrees C prior to their use. All drugs and investigational agents were tested over a range starting from a high concentration at or near the clinical Cmax and decreasing in half-log increments. If the clinical Cmax for an agent had not been determined, the highest concentration tested was 10 microM.
2.3 Cell Culture. All cells were maintained in an incubator at 37 degrees C and 5% CO2 with 95% humidity. The PDC lines were cultured according to standard operating procedures established by the NCI PDMR. All PDCs were thawed and cultured in Matrigel-coated flasks prepared with a working solution of 1X Ham's F-12 nutrient mix, without supplementation (Invitrogen, cat. 11765054), 100 U/mL penicillin-streptomycin (Invitrogen, cat. 15140122), and 2.5% Matrigel (Corning Inc., cat. 354248) for the first three passages. The 857933-349-R-J2-PDC line was cultured in 6C/Colon 1B media, which includes advanced DMEM/F-12 (Thermo Fisher Scientific, cat. 12634028), 10 mM HEPES (Thermo Fisher Scientific, cat. 15630080), 1X GlutaMAX supplement (Thermo Fisher Scientific, cat. 35050061), 0.1 mg/mL primocin (InvivoGen, cat. ant-pm-2), 10% defined fetal bovine serum, heat inactivated (HyClone Laboratories Inc., cat. SH30070.03HI), 50% L-WRN conditioned media (ATCC, cat. CRL-3276), 1.25 mM N-Acetyl-L-cysteine (Sigma-Aldrich, cat. A9165), 10 mM nicotinamide (Sigma-Aldrich, cat. N0636), 1X B-27 supplement (Thermo Fisher Scientific, cat. 17504044), 1X N-2 supplement (Thermo Fisher Scientific, cat. 17502048), 10 microM Y-27632 dihydrochloride (Tocris Bioscience, cat. 1254), and 50 ng/mL human EGF recombinant protein (Thermo Fisher Scientific, cat. PHG0311). The 485176-168-R4-J1-PDC line was cultured in Panc media, which includes all 6C/Colon 1B media components plus 100 ng/mL human FGF-10 (Thermo Fisher Scientific, cat. 100-26), 500 nM SB-431542 (Selleckchem, cat. S1067), and gastrin (Tocris, cat. 3006).
[…]

The mark [1] stands for this setting: curve of first compound, second compound 0.0316 µM.
[2] abbreviates: curve of first compound, second compound 0.1 µM.
Where [3] appears, read: curve of first compound, second compound 0.316 µM.
Setting [4] is: curve of first compound, second compound 1 µM.
[5] abbreviates: curve of first compound, second compound 3.16 µM.
Setting [6] is: curve of first compound, second compound 10 µM.
Setting [7] is: second compound 0.0316 µM, first compound 0.0316 µM.
[8] abbreviates: second compound 0.0316 µM, first compound 0.1 µM.
[9] abbreviates: second compound 0.0316 µM, first compound 0.316 µM.
Where [10] appears, read: second compound 0.0316 µM, first compound 1 µM.
Where [11] appears, read: second compound 0.0316 µM, first compound 3.16 µM.
The mark [12] stands for this setting: second compound 0.0316 µM, first compound 10 µM.
Where [13] appears, read: second compound 0.1 µM, first compound 0.0316 µM.
The mark [14] stands for this setting: second compound 0.1 µM, first compound 0.1 µM.
Where [15] appears, read: second compound 0.1 µM, first compound 0.316 µM.
[16] abbreviates: second compound 0.1 µM, first compound 1 µM.
Setting [17] is: second compound 0.1 µM, first compound 3.16 µM.
The mark [18] stands for this setting: second compound 0.1 µM, first compound 10 µM.
[19] abbreviates: second compound 0.316 µM, first compound 0.0316 µM.
[20] abbreviates: second compound 0.316 µM, first compound 0.1 µM.
[21] abbreviates: second compound 0.316 µM, first compound 0.316 µM.
[22] abbreviates: second compound 0.316 µM, first compound 1 µM.
Where [23] appears, read: second compound 0.316 µM, first compound 3.16 µM.
Setting [24] is: second compound 0.316 µM, first compound 10 µM.
Setting [25] is: second compound 1 µM, first compound 0.0316 µM.
Setting [26] is: second compound 1 µM, first compound 0.1 µM.
Where [27] appears, read: second compound 1 µM, first compound 0.316 µM.
Where [28] appears, read: second compound 1 µM, first compound 1 µM.
Where [29] appears, read: second compound 1 µM, first compound 3.16 µM.
The mark [30] stands for this setting: second compound 1 µM, first compound 10 µM.
Where [31] appears, read: second compound 3.16 µM, first compound 0.0316 µM.
Setting [32] is: second compound 3.16 µM, first compound 0.1 µM.
Where [33] appears, read: second compound 3.16 µM, first compound 0.316 µM.
Where [34] appears, read: second compound 3.16 µM, first compound 1 µM.
[35] abbreviates: second compound 3.16 µM, first compound 3.16 µM.
[36] abbreviates: second compound 3.16 µM, first compound 10 µM.
The mark [37] stands for this setting: second compound 10 µM, first compound 0.0316 µM.
Setting [38] is: second compound 10 µM, first compound 0.1 µM.
The mark [39] stands for this setting: second compound 10 µM, first compound 0.316 µM.
[40] abbreviates: second compound 10 µM, first compound 1 µM.
The mark [41] stands for this setting: second compound 10 µM, first compound 3.16 µM.
[42] abbreviates: second compound 10 µM, first compound 10 µM.
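Also: spheroids exposed to the agents for seven days before readout.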
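For viability, T/C in this document: percent of vehicle control viability with DMSO wells as 100%.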

Take `C=CCn1c(=O)c2cnc(Nc3ccc(N4CCN(C)CC4)cc3)nc2n1-c1cccc(C(C)(C)O)n1`: the viability, T/C is 86.6% and 93% (compound 0.0316 µM); 114% and 97.5% (compound 0.1 µM); 94.4% and 87.1% (compound 0.316 µM); 74.3% and 105% (compound 1 µM); 70.5% and 77.6% (compound 3.16 µM); 57.6% and 47% (compound 10 µM). Moreover, the IC50 (curve of compound) is > 10 µM and 8.92 µM.

As for `CC(C)(O)C1CCC(Nc2ccc3ncc(-c4cccc(C(F)(F)F)c4)n3n2)CC1` (centres undefined), the viability, T/C is 60.2% (compound 0.0316 µM); 82% (compound 0.1 µM); 82.5% (compound 0.316 µM); 36.3% (compound 1 µM); 9.61% (compound 3.16 µM); 12.9% (compound 10 µM). Also, the IC50 (curve of compound) is 0.665 µM.

In the case of `CN(C)c1ccc(Nc2c3ccc(NC(=O)CCN4CCCC4)cc3nc3cc(NC(=O)CCN4CCCC4)ccc23)cc1`, the viability, T/C is, setting by setting: (compound 3.16 µM) 63.9% [middle of 11 runs]; (compound 10 µM) 41.3% [middle of 11 runs].

As for `COc1ncnc(C2CC2)c1-c1ncc2cnn(Cc3ccc(-c4nc(C(F)(F)F)cn4C(C)C)cc3)c2n1`, the viability, T/C was 89.1% and 87.3% (compound 0.0316 µM); 75.2% and 70.5% (compound 0.1 µM); 85.4% and 92.4% (compound 0.316 µM); 113% and 83% (compound 1 µM); 96.8% and 88.3% (compound 3.16 µM); 84.5% and 65.8% (compound 10 µM). Under “curve of compound”, the IC50 was more than 10 µM.

For `O=C(NO)c1cnc(N2CCN(S(=O)(=O)c3ccc4ccccc4c3)CC2)nc1`, the viability, T/C is 97.4% (compound 0.0316 µM); 68.3% (compound 0.1 µM); 52.4% (compound 0.316 µM); 35.2% (compound 1 µM); 0.38% (compound 3.16 µM); 0.16% (compound 10 µM). Also, the IC50 (curve of compound) came out at 0.318 µM.

As to `CC(C)n1c(=O)n(C)c2cnc3cc(F)c(-c4ccc(OCCCN5CCCCC5)nc4)cc3c21` + CN(C)c1ccc(Nc2c3ccc(NC(=O)CCN4CCCC4)cc3nc3cc(NC(=O)CCN4CCCC4)ccc23)cc1, the half-maximal inhibitory concentration (IC50) was more than 10 µM under setting [1]; 7 µM under setting [2]; 6.84 µM under setting [3]; 7.58 µM under setting [4]; 0.167 µM under setting [5]; 0.0604 µM under setting [6]. For the same molecule, the viability, T/C under setting [7] is 127%; the viability, T/C under setting [8] is 103%; the viability, T/C under setting [9] is 92.8%; the viability, T/C under setting [10] was 98.6%; the viability, T/C under setting [11] was 89.2%; the viability, T/C under setting [12] was 59.1%. For the same molecule, the viability, T/C was 75.2% under setting [13]; 99.2% under setting [14]; 97.7% under setting [15]; 71.3% under setting [16]; 85% under setting [17]; 34.4% under setting [18]. Besides, the viability, T/C was 88.8% under setting [19]; 128% under setting [20]; 109% under setting [21]; 113% under setting [22]; 73.7% under setting [23]; 38.3% under setting [24]. Also, the viability, T/C was 93.3% under setting [25]; 89.9% under setting [26]; 63.7% under setting [27]; 63.7% under setting [28]; 70.3% under setting [29]; 40% under setting [30]. The viability, T/C was 63.7% under setting [31]; 54.4% under setting [32]; 42.5% under setting [33]; 30.2% under setting [34]; 39% under setting [35]; 11.6% under setting [36]. The viability, T/C reads like this: under setting [37], 68.4%; under setting [38], 36.3%; under setting [39], 14.8%; under setting [40], 9.87%; under setting [41], 4.77%; under setting [42], 1.9%.

Regarding `Nc1ccn(C2OC(CO)C(O)C2(F)F)c(=O)n1` (centres undefined) + CN(C)c1ccc(Nc2c3ccc(NC(=O)CCN4CCCC4)cc3nc3cc(NC(=O)CCN4CCCC4)ccc23)cc1, the concentration for half-maximal inhibition (IC50) is, setting by setting: under setting [1], more than 10 µM; under setting [2], more than 10 µM; under setting [3], more than 10 µM; under setting [4], more than 10 µM; under setting [5], 2.84 µM; under setting [6], less than 0.0316 µM. Also, the viability, T/C runs as follows: under setting [7], 90.2%; under setting [8], 78.8%; under setting [9], 90%; under setting [10], 83%; under setting [11], 77.2%; under setting [12], 60.9%. Moreover, the viability, T/C is, setting by setting: under setting [13], 85.3%; under setting [14], 103%; under setting [15], 72.5%; under setting [16], 84.5%; under setting [17], 70.4%; under setting [18], 68.5%. Moreover, the viability, T/C was 98.4% under setting [19]; 94.8% under setting [20]; 70.4% under setting [21]; 68.3% under setting [22]; 76.9% under setting [23]; 67.8% under setting [24]. The viability, T/C reads like this: under setting [25], 79.9%; under setting [26], 78.2%; under setting [27], 74.5%; under setting [28], 68.1%; under setting [29], 78.8%; under setting [30], 66.5%. Besides, the viability, T/C by setting is: under setting [31], 68.7%; under setting [32], 58%; under setting [33], 53.2%; under setting [34], 57.5%; under setting [35], 54%; under setting [36], 38.7%. Further, the viability, T/C by setting is: under setting [37], 30.9%; under setting [38], 26.6%; under setting [39], 26.2%; under setting [40], 32.9%; under setting [41], 26.5%; under setting [42], 24.9%.
